Here are results for three substances from patent US8987171B2, “Selective herbicides with activator adjuvants” (W. Neudorff GmbH KG, priority 2010, dated 2015).

Data set [1] concerns perennial ryegrass. The data set is described as follows: Greenhouse black medic and turf test, iron chelates with Sylgard 309 (Example 2): grass damage. Format: in vivo. As to conditions: sprayed twice at 200 ml/m^2, 7 days after first spraying, visual rating 0-100%. Here is the method:
(§1) The following non-limiting examples serve to further describe the invention. Unless otherwise specified, all of the iron solutions were made using the same molar concentration of iron ion as chelating agent. Samples were prepared by diluting a metal chelate, such as iron GLDA (Dissolvine GL-Fe-5), iron EDDS (Enviomet C320), or iron HEDTA (Neu 1173H), to the desired level of iron as specified using simple stirring. Neu 1173H contains the stabilizer sodium citrate at 1.5% prior to dilution. Dilutions of Neu1173H to the level of 0.25% Fe, incorporates 0.08% sodium citrate into the spray solutions. Adjuvants (Sylgard® 309, Biosoft®D-40, Tween® 20), were then diluted and added to the diluted metal chelate. Samples were usually prepared within 48 hours of spraying. All of the outside tests were done on areas of mixed grass and white clover that were at least 2 months old. For the greenhouse tests, white clover and black medic were grown in a commercial greenhouse mix using supplemental lighting and heating. Each plant was grown in a 2¼ inch pot to a minimum diameter of 15-20 cm. Perennial ryegrass was grown in 2¼ inch pots in the same greenhouse conditions as above and they are at least 4 weeks old at the time of application. […]
(§2) All plant damage was visually assessed using a percentage rating scale from 0 (no injury) to 100% (death). […]

The subject of another data set is black medic. The experiment in a line: Greenhouse black medic and turf test, iron chelates with Sylgard 309 (Example 2): black medic damage. The class given is in vivo. The settings on record: sprayed twice at 200 ml/m^2, 7 days after first spraying, visual rating 0-100%. On the procedure: as §1, §2
Data set [2] concerns perennial ryegrass. The data set is described as follows: Greenhouse white clover and turf test, iron chelates with Sylgard 309 (Example 6): grass damage. Format: in vivo. The settings on record: sprayed twice at 200 ml/m^2, 14 days after second spraying, visual rating 0-100%. On the procedure:
as §1, §2

The test system of data set [3] is white clover. The experiment in a line: Greenhouse white clover and turf test, iron chelates with Sylgard 309 (Example 6): white clover damage. The settings on record: sprayed twice at 200 ml/m^2, 14 days after second spraying, visual rating 0-100%. The class given is in vivo, white clover (Trifolium repens). On the procedure:
as §1, §2

Data set [4] concerns park lawn. The data set is described as follows: Field English daisy and turf test, iron chelates with Sylgard 309 and Bio-Soft D-40 (Example 9): grass damage. Format: in vivo. The settings on record: sprayed twice at 100 ml/m^2, 7 days after first spraying, visual rating 0-100%. On the procedure:
as §1, §2

Data set [5] relates to English daisy. The experiment in a line: Field English daisy and turf test, iron chelates with Sylgard 309 and Bio-Soft D-40 (Example 9): English daisy damage. Format: in vivo, English daisy (Bellis perennis). The settings on record: sprayed twice at 100 ml/m^2, 7 days after first spraying, visual rating 0-100%. Here is the method:
as §1, §2

Data set [6] deals with perennial ryegrass. The data set is described as follows: Greenhouse white clover and turf test, iron chelates with Sylgard 309 (Example 1): grass damage. Format: in vivo. The settings on record: sprayed twice at 200 ml/m^2, 7 days after second spraying, visual rating 0 (no injury) to 100% (death). Here is the method:
as §1, §2

The subject of data set [7] is white clover. The experiment in a line: Greenhouse white clover and turf test, iron chelates with Sylgard 309 (Example 1): white clover damage. The class given is in vivo, white clover (Trifolium repens). The settings on record: sprayed twice at 200 ml/m^2, 7 days after second spraying, visual rating 0-100%. On the procedure:
as §1, §2

Data set [8] concerns perennial ryegrass. Format: in vivo. The settings on record: greenhouse, sprayed twice at 200 ml/m^2, one day after first spraying, visual rating 0-100%. On the procedure: as §1, §2
The test system of data set [9] is white clover. The experiment in a line: Greenhouse white clover and turf test, iron chelates with Bio-Soft D-40 (Example 3): white clover damage. Format: in vivo, white clover (Trifolium repens). The settings on record: sprayed twice at 200 ml/m^2, one day after first spraying, visual rating 0-100%. Here is the method:
as §1, §2

For data set [10], the system named is park lawn. The data set is described as follows: Field white clover and turf test, iron chelates with Bio-Soft D-40 (Example 4): grass damage. Format: in vivo. As to conditions: sprayed twice at 200 ml/m^2, 14 days after second spraying, visual rating 0-100%. On the procedure: as §1, §2
The test system of data set [11] is white clover. The data set is described as follows: Field white clover and turf test, iron chelates with Bio-Soft D-40 (Example 4): white clover damage. The class given is in vivo, white clover (Trifolium repens). The settings on record: sprayed twice at 200 ml/m^2, 14 days after second spraying, visual rating 0-100%. On the procedure: as §1, §2
The test system of data set [12] is perennial ryegrass. The data set is described as follows: Greenhouse white clover and turf test, iron chelates with Tween 20 (Example 5): grass damage. The class given is in vivo. The settings on record: sprayed twice at 200 ml/m^2, one day after first spraying, visual rating 0-100%. Here is the method: as §1, §2
The subject of data set [13] is white clover. The data set is described as follows: Greenhouse white clover and turf test, iron chelates with Tween 20 (Example 5): white clover damage. Format: in vivo, white clover (Trifolium repens). The settings on record: sprayed twice at 200 ml/m^2, one day after first spraying, visual rating 0-100%. Here is the method: as §1, §2
In data set [14] the test system is park lawn. The data set is described as follows: Field English daisy and turf test, iron chelates with Sylgard 309 (Example 8): grass damage. The class given is in vivo. As to conditions: sprayed twice at 200 ml/m^2, 5 days after first spraying, visual rating 0-100%. On the procedure: as §1, §2
Data set [15] deals with English daisy. The experiment in a line: Field English daisy and turf test, iron chelates with Sylgard 309 (Example 8): English daisy damage. Format: in vivo, English daisy (Bellis perennis). The settings on record: sprayed twice at 200 ml/m^2, 5 days after first spraying, visual rating 0-100%. On the procedure:
as §1, §2

Data set [16] relates to perennial ryegrass. The experiment in a line: Greenhouse dandelion and turf test, iron chelates with Sylgard 309 (Example 7): grass damage. The settings on record: sprayed twice at 200 ml/m^2, 7 days after first spraying, visual rating 0-100%. The class given is in vivo. On the procedure: as §1, §2
Another data set deals with dandelion. The experiment in a line: Greenhouse dandelion and turf test, iron chelates with Sylgard 309 (Example 7): dandelion damage. Format: in vivo, dandelion (Taraxacum officinale). The settings on record: sprayed twice at 200 ml/m^2, 7 days after first spraying, visual rating 0-100%. On the procedure:
as §1, §2

Where two headings read alike, the source gives them in different places.

“iron hydroxyethylenediaminetriacetic acid [FeHEDTA 1.5% a.i (0.25% Fe)]”: the “Grass Damage (%)” value with perennial ryegrass [1] was found to be 3%; with perennial ryegrass [2], 2%; with park lawn [4] it was 2%. Also, the “Black Medic Damage (%)” value in the data set on black medic stood at 54%. Moreover, the “White Clover Damage (%)” value in the data set with white clover [3] came to 46%. Also, the “English daisy Damage (%)” value in the data set with English daisy [5] amounted to 81%.
For the substance “iron ethylenediaminedisuccinate [FeEDDS 2.49% a.i. (0.4% Fe)]”, the “Grass Damage (%)” value in the data set on perennial ryegrass [6] is recorded as 3%; in the data set with perennial ryegrass [1], 2%; in the data set on perennial ryegrass [8], 1%; with park lawn [10], 1%; with perennial ryegrass [12] it was 0%; with park lawn [14], 4%. Also, the “White Clover Damage (%)” value in the data set with white clover [7] turned out to be 27%; in the data set with white clover [9], 15%; in the data set on white clover [11] it was 38%; with white clover [13], 18%. Besides, in the data set on black medic, the “Black Medic Damage (%)” value was 28%. Moreover, the “English daisy Damage (%)” value in the data set with English daisy [15] amounted to 39%.
As to “iron glutamicaciddiacetic acid [FeGLDA 2.28% a.i. (0.4% Fe)]”, the entries for the “Grass Damage (%)” value in the data set on perennial ryegrass [6], in the data set with perennial ryegrass [8] and in the data set with perennial ryegrass [16] were 8%, 0% and 6%, respectively. The “White Clover Damage (%)” value is given as 7% in the data set with white clover [7] and 8% with white clover [9]. Further, the “Dandelion Damage (%)” value in the data set with dandelion is 38%.
